The results in this text go back to US11801242B2, “Compositions and methods for adjuvant cancer therapeutics” (DUKE UNIVERSITY, priority 2018, dated 2023).

One assay deals with Rev1^+/+ MEF cells. The assay can be described thus: HPRT mutagenesis assay. The conditions noted are these: RE01 1.5 μM, cisplatin 0.5 μM. Type of assay: cell-based, mouse. On the procedure: For the hypoxanthine-guanine phosphoribosyl transferase (HPRT) mutagenesis assay, cells were first grown in HAT (complete media with 100 μM Hypoxanthine, 0.4 μM Aminopterin and 16 μM Thymidine) media (ThermoFisher) for 14 days to weed out any spontaneous HPRT mutants. After HAT selection, cells were exposed to cisplatin at the 0.5 μM concentration for 24 hours. Then, in fresh media, RE01 at a concentration of 1.5 μM was added to cells. After 24 hours of drug treatment, cells were trypsinized and washed with PBS. While 200-600 cells were plated in complete media in triplicates in 6-well plates to determine clonal efficiency, the rest of the cells were plated in complete media to allow the expression of the phenotype for 8 days. Then, 500,000 cells per treatment were plated in sextuplicate in 10 cm dishes in 6-TG media to allow the proliferation of mutated HPRT^− cells. Colonies were fixed (50% methanol and 10% glacial acetic acid), stained (0.02% Coomassie brilliant blue R-250 stain in methanol: acetic acid: water in a ratio of 46.5:7:46.5 (v/v/v)), and counted after 14-20 days. The HPRT mutation frequency was calculated as the ratio of the number of HPRT^− colonies in 6-TG media to the number of surviving colonies plated in complete media to determine clonal efficiency.

The target of assay [1] is T1, chimeric REV1 CTD protein (Mus musculus, UniProt Q920Q2).
T1 construct: the mouse REV1 CTD (F1150-T1249); His10-GB1 (TEV site) (N, cleaved yes); made in house; host or cells: E. coli BL21 Star (DE3)
T1 sequence (Q920Q2 1150-1249): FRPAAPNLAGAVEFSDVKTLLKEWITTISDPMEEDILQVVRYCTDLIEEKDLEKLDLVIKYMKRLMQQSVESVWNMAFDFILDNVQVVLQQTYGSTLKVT
The assay can be described thus: Isothermal titration calorimetry. The assay is classed as binding. Particulars: 25° C. On the procedure:
Isothermal titration calorimetry measurements were carried out using a MicroCal VP-ITC instrument at 25° C., with the chimeric REV1 CTD protein (300 μM) in the syringe and compound (15 μM) in the cell. Compounds were initially dissolved in 50% MPD. Protein and compound samples were diluted in a buffer containing 50 mM HEPES pH 7.5, 50 mM KCl, 2 mM TCEP, 2% DMSO and 0.1% MPD. Microcal Origin 7 software was used to analyze the data.
(ITC needs no label: the signal is the heat of the interaction.)

The subject of the next assay is Rev1^−/− MEF cells. As to the kind of experiment: Clonogenic survival assay. Type of assay: cell-based, mouse. The protocol:
300 cells were plated in triplicate in 6-well plates for 24 hours. Cisplatin (cis-diammineplatinum(II) dichloride, Sigma-Aldrich) was added to relevant wells for 24 hours. All plates were incubated at 37° C. for 24 hours. Media were changed the next day and in fresh media RE01 (at 1.5 μM concentration) was added to untreated or cisplatin-treated cells for another 24 hours. Media were changed at the end of these combination treatments, and cells were allowed to recover for 7 days. To stain the resulting colonies, media were aspirated and the fixative (50% methanol and 10% glacial acetic acid) was added for 10 minutes, followed by the addition of 0.02% Coomassie brilliant blue R-250 stain (ThermoFisher) in methanol: acetic acid: water in a ratio of 46.5:7:46.5 (v/v/v). Colonies that stained blue and contained at least 40 cells were counted. Relative cell survival or colony formation was calculated by dividing colony counts from treated samples by the DMSO or untreated controls.
REV1 was knocked down by transiently transfecting SMARTpool: ON-TARGETplus REV1 siRNA by nucleofection. The siRNA was mixed with the nucleofection buffer Mouse/Rat Hepatocyte Nucleofector™ Kit (Lonza) and electroporated using the Nucleofector™ 2b device. Full-length mouse Rev1 on the pC3 plasmid (Clontech) was nucleofected using the same buffers and device into Rev1^−/− cells to complement the REV1 function.

Assay [2] deals with T2, chimeric FLAG-tagged POL κ RIR-REV1 CTD (Mus musculus, UniProt Q920Q2).
T2 construct: the mouse REV1 CTD (F1150-T1249); His10-GB1 (TEV site) (N, cleaved yes); made in house; host or cells: E. coli BL21 Star (DE3)
T2 sequence (Q920Q2 1150-1249): T1 sequence (Q920Q2 1150-1249)
As to the kind of experiment: In vitro DSS-crosslinking, Western blot. The conditions noted are these: 100 μM RE01 NaOH salt. On the procedure:
Samples of the chimeric FLAG-tagged POL κ RIR-REV1 CTD in the presence of 0 μM or 100 μM RE01 were treated with increasing molar ratios of DSS (disuccinimidyl suberate) and analyzed by SDS-PAGE followed by Western blotting with anti-FLAG antibody. Monomer and crosslinked dimer bands are labeled.
More specifically, chimeric FLAG-tagged POL κ RIR-REV1 CTD in a buffer containing 25 mM HEPES (pH 7.0), 100 mM KCl, and 4 mM TCEP was mixed with either MPD (control) or RE01 NaOH salt in MPD to yield a reaction solution containing 1 μM protein, 5% MPD, and either 0 or 100 μM compound. Appropriate dilutions of DSS in DMSO were added to the reaction mixture to yield DSS-to-protein molar ratios of 0:1, 0.5:1, 1:1, 5:1, 10:1, and 50:1 and a final DMSO concentration of 5% (v/v). The reaction mixture was incubated for 30 min at room temperature and then quenched by addition of 1 M Tris (pH 8.5). The SDS-loading dye containing 4 mM TCEP and 10.8 mM iodoacetamide (to block free cysteines) was added to each reaction mixture, and the samples were loaded onto a Pre-cast 4-20% gradient SDS-PAGE gel (Bio-Rad). The gel samples were transferred to a 0.45 μm nitrocellulose membrane (Bio-Rad) for Western blotting with the anti-FLAG primary antibody M2 (Sigma-Aldrich) and the HRP-conjugated secondary antibody (LI-COR) and imaging with the LI-COR Odyssey system.

One may read the Kd as the free concentration of one partner at which half of the binding sites on the other are occupied at equilibrium, for simple one-to-one binding.

`CC(C)CC(=O)c1c(Nc2ccc(Cl)cc2Cl)[nH]c2c(Cl)ccc([N+](=O)[O-])c2c1=O` [RE01, 8-chloro-2-((2,4-dichlorophenyl)amino)-3-(3-methylbutanoyl)-5-nitroquinolin-4(1H)-one]: in the assay with Rev1^+/+ MEF cells, the “spontaneous or cisplatin-induced HPRT mutation rates” value was “significantly reduced”. For the same compound, the protein-to-ligand stoichiometry in assay [1] worked out at 2.04±0.03. The Kd in assay [1] (read-out: dissociation constant (Kd)) came out at 420 ± 110 nM. The colony forming ability entry with Rev1^−/− MEF cells (RE01 1.5 μM + cisplatin 0.5 μM vs cisplatin alone) is reported as “but not in Rev1^−/− MEF cells”. In addition, the “RE01 mediated sensitization to cisplatin” value with Rev1^−/− MEF cells (cells complemented with plasmid encoding REV1, RE01 1.5 μM, cisplatin 1 μM) is on record as “fully restored”. Also, the “dimerization of the REV1 CTD in solution” value in assay [2] is given as “promotes the dimerization”.
